In article PMC5288202, “Simultaneous inhibition of Vps34 kinase would enhance PI3Kδ inhibitor cytotoxicity in the B-cell malignancies” (Oncotarget, 2016):

Columns and labels:
[1] = tested on: OCI-AML-3; assay: Cell cycle analysis; assay type: cell-based; conditions: OCI-AML-3, 48 h treatment
[2] = tested on: NOMO-1; assay: Anti-proliferative effect; assay type: cell-based; conditions: Homo sapiens, NOMO-1, read-out: GI50 NOMO-1
[3] = tested on: OCI-AML-2; assay: Induction of apoptosis (PARP cleavage); assay type: cell-based; conditions: OCI-AML-2, evident at 3 μM to 10 μM
[4] = tested on: OCI-AML-3; assay: Anti-proliferative effect; assay type: cell-based; conditions: Homo sapiens, AML(FLT3wt)
[5] = molecular target: T1, PI3Kδ (Homo sapiens, UniProt O00329); assay: PI3K isoforms cellular selectivity assay (AKT phosphorylation, Raji, anti-IgM); assay type: cell-based; conditions: Raji cells, anti-IgM stimulation
T1 sequence (O00329 whole entry, canonical isoform): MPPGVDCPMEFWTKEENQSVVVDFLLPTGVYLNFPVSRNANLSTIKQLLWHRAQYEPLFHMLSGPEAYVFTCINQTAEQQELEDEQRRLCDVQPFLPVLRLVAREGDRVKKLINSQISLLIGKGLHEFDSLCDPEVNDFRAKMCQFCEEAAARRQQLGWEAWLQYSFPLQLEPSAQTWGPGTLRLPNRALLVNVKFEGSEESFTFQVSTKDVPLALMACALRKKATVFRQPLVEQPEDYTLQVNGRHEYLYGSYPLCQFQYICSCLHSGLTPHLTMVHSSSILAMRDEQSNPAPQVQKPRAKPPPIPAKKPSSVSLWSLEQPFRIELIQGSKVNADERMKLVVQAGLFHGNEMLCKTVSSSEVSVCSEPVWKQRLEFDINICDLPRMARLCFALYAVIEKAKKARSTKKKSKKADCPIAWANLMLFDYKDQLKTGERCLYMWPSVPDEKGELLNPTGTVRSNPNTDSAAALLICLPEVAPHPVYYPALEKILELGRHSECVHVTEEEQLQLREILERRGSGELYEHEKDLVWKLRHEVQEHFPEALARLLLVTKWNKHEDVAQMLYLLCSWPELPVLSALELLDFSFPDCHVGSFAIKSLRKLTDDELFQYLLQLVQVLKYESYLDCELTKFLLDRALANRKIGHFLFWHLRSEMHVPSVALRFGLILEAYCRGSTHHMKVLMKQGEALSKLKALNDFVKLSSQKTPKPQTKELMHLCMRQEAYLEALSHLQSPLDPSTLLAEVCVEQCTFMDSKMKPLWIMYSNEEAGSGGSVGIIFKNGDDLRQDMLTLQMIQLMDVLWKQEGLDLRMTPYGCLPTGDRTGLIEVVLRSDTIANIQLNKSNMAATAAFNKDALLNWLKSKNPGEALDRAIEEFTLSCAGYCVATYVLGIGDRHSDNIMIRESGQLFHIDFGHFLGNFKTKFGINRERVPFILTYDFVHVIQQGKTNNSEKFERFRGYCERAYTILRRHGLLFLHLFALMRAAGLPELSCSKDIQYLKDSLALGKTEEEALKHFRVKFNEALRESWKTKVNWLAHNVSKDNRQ
T1 sequence (P27986 whole entry partner, canonical isoform): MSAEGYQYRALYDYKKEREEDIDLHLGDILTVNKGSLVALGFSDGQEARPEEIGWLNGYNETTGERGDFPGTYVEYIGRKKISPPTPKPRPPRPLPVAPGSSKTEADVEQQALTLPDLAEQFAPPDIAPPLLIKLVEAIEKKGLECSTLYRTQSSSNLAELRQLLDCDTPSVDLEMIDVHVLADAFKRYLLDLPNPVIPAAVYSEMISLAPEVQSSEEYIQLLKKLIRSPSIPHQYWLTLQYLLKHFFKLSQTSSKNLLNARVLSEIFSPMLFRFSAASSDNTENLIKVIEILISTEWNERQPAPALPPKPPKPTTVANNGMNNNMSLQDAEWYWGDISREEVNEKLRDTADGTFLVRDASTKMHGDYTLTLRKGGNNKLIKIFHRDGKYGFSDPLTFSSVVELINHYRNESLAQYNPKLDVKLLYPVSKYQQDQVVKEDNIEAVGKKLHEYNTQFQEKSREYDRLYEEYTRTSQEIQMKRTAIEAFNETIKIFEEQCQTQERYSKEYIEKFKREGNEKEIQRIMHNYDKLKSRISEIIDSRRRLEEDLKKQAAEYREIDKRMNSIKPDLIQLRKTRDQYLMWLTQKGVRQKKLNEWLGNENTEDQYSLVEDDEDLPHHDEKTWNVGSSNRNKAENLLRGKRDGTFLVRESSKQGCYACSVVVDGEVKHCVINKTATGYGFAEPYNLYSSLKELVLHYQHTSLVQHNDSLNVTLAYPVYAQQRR
Description: Cells were lysed and AKT phosphorylation was determined by Western Blotting. Intensity of the bands was determined using ImageJ 1.42q (NIH, USA) and normalized to total AKT (loading control).

[6] = tested on: LC3BII accumulation in HeLa cells; assay: LC3BII accumulation in the presence of EBSS and HCQ (immunoblot); assay type: cell-based; conditions: Homo sapiens, EBSS and HCQ (25 μM), read-out: EC50 prevention of LC3BII accumulation
Description: (§1) HeLa cells were treated with different concentrations of inhibitors for 16 hours. For all immunofluorescence experiments, cells were fixed in -20 °C methanol for 5 minutes or 3.7% (v/v) formaldehyde in phosphate-buffered saline (PBS) for 20 minutes. For LC3B staining, cells were fixed in -20 °C methanol. For EEA1 and LAMP1 staining, cells were fixed in PBS+ formaldehyde. Cells were then permeabilized with TBSTx (0.1% Triton X-100), blocked in AbDil (TBSTx + 2% BSA + 0.1% NaN3), and probed with primary and secondary antibodies diluted in AbDil. Cells were rinsed thoroughly with TBSTx and mounted by anti-fade prolong Gold with DAPI. Images were taken using a Leica DMI4000B fluorescent microscope. All experiments were repeated at least three times). […] Cells were lysed in lysis buffer. P62, LC3B, and GAPDH antibodies were used for immunoblotting.

[7] = tested on: pERK in MEC-2 cells; assay: pERK immunoblotting; assay type: cell-based
Description: The following antibodies were purchased from Cell Signaling Technology: Akt(#4691), Phospho-Akt(Thr308)(#4056), Phospho-Akt(Ser473)(#4060), GAPDH, GSK-3β(#9315), Phospho-GSK-3β(#9323), FoxO1(#2880), Phospho-FoxO1 (Thr24)/FoxO3a(Thr32)/FoxO4(Thr28)(#2599), PRAS40(#2691), Phospho-PRAS40 (Thr246)(#2997), 4E-BP1(#9644), p70 S6K(#2708), Phospho-p70 S6K (Thr389)(#9234). SQSTM1/p62 (D5E2)(#8025), LC3B(#12513). PARP(#9532), Caspase-3(#9665), Phospho-p44/42 MAPK (Erk1/2) (Thr202/Tyr204)(#4377), p44/42 MAPK (Erk1/2) (#4695), Phospho-NF-ΚB P65 (Ser 536)(#3033), NF-ΚB P65(#4764). Lysophosphatidic Acid (#sc-201053, Santa Cruz), Recombinant Human PDGF-BB (#220-BB, R&D), Recombinant Human C5a (Peprotech, #300-70), goat anti-IgM (#5C07615, Meridian). LC3B antibody (#3868, CST). Tubulin antibody (#8035, Santa Cruz). EEA1 antibody (#610456, BD Bioscience) and LAMP1 antibody (#24170, Abcam). Secondary antibodies, Alexa488-anti-mouse, Alexa594-anti-rabbit and Prolong gold mounting medium with DAPI were purchased from Invitrogen.

[8] = molecular target: T2, PI3Kγ (Homo sapiens, UniProt P48736); assay: ADP-Glo biochemical assay; conditions: purified protein, 50 μM ATP, read-out: IC50 against PI3Kγ (PIK3CG)
T2 construct: purchased Invitrogen
T2 sequence (P48736 whole entry): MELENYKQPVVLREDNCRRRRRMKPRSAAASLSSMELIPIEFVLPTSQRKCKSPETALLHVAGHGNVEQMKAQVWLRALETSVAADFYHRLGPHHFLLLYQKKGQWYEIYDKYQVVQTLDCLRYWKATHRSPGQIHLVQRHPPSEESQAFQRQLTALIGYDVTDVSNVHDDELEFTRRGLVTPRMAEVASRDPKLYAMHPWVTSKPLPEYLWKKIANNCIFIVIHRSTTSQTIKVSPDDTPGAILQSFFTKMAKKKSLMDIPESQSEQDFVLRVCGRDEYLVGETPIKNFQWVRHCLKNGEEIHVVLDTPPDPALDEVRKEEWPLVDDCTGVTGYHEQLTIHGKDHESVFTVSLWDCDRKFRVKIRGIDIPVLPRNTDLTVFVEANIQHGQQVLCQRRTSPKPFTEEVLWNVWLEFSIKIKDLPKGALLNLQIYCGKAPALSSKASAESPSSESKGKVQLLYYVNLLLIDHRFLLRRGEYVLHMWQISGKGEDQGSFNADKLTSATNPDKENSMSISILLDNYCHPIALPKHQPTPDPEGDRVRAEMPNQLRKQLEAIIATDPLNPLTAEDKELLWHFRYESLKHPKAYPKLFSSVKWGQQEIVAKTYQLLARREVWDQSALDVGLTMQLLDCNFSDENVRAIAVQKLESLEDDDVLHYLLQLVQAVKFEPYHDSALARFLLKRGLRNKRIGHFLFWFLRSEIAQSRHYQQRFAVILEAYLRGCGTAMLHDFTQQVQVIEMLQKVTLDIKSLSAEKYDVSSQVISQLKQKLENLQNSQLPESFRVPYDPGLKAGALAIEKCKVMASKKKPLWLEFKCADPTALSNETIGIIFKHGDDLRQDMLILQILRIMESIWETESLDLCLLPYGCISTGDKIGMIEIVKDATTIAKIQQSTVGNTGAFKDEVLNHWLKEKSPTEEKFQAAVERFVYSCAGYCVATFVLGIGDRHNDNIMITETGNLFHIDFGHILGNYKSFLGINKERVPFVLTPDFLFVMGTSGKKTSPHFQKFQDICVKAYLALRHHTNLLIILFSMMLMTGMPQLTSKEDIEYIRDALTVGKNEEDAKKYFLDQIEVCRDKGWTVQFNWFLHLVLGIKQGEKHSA

[9] = molecular target: T3, VPS34 (Homo sapiens, UniProt Q8NEB9); assay: ADP-Glo biochemical assay; conditions: purified protein, 50 μM ATP, read-out: IC50 against VPS34
T3 construct: purchased Invitrogen
T3 sequence (Q8NEB9 whole entry): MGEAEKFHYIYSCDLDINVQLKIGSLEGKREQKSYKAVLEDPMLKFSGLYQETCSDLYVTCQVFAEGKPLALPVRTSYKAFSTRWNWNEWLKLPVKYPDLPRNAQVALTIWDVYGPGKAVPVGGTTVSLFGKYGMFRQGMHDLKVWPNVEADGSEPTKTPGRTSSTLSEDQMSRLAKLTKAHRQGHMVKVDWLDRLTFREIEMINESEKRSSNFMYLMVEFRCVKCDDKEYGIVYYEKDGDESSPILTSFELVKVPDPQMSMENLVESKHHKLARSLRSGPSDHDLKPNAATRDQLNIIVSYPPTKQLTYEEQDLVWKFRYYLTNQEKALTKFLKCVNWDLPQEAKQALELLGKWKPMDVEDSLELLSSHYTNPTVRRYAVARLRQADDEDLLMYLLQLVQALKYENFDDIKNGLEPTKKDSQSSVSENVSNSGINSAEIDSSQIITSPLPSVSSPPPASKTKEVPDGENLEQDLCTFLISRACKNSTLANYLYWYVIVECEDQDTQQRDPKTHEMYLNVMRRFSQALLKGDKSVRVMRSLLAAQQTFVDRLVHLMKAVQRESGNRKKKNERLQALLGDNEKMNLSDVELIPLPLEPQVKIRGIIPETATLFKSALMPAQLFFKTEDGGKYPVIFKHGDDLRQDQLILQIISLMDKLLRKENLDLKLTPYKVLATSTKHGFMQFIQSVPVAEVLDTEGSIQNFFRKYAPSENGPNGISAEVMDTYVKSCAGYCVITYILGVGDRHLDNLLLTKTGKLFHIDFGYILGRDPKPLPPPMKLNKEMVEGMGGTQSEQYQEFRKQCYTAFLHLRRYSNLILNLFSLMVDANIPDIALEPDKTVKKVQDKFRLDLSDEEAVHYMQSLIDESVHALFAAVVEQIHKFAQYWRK
Description: (§2) The activities of PI3Kα, PI3Kβ, PI3Kδ, PI3Kγ, PI3KC2α, PI3KC2β, Vps34, PI4Kα and PI4Kβ were determined by using ADP-Glo assay, a fluorescence-based immunoassay that measures kinase activity in terms of the amount of ADP produced. A kinase titration was performed to determine the concentration. The amount of recombinant kinases was optimized to keep the reaction velocity within the linear range, to obtain an adequate difference between the resulting signals of sample in/out the presence of enzyme. The optimized enzyme concentrations for evaluating the inhibitory activities of compounds were chosen as follows: 0.16 μg/ml, 6.0 μg/ml, 1.0 μg/ml, 5.0 μg/ml, 5.0 μg/ml, 10.0 μg/ml, 1.2 μg/ml, 1.2 μg/ml and 1.0 μg/ml for PI3Kα, PI3Kβ, PI3Kδ, PI3Kγ, PI3KC2α, PI3KC2β, Vps34, PI4Kα and PI4Kβ, respectively. The ATP concentration was optimized, 10 μM ATP for PI3Kα and PI3Kβ, and 50 μM ATP for detection of the other seven kinases. The PI3Kα, PI3Kβ, PI3Kδ, PI3Kγ, PI3KC2α, PI3KC2β kinase reactions were carried out in 10 μl volume in a 384-well plate in the kinase reaction buffer containing 50 mM Hepes pH 7.5, 3 mM MgCl2, 1 mM EGTA, 1 mM NaCl, 0.03% CHAPS and 2 mM DTT. […] 10 μl kinase detection reagent was dded and incubated for 30 min at room temperature, before the luminescence signal was read with an envision PerkinElmer plate reader.

[10] = molecular target: T1, PI3Kδ; assay: biochemical
Description: as §2

[11] = tested on: MEC-2; assay: Autophagy markers LC3BII and p62 (immunoblotting); assay type: cell-based
[12] = tested on: MV4-11; assay: Induction of apoptosis (PARP cleavage); assay type: cell-based
[13] = tested on: MEC-1; assay: Anti-proliferative effect; assay type: cell-based; conditions: Homo sapiens, MEC1; CLL
[14] = molecular target: T4, PI3Kβ (Homo sapiens, UniProt P42338); assay: ADP-Glo biochemical assay; conditions: purified protein, 10 μM ATP, read-out: IC50 against PI3Kβ (PIK3CB)
T4 construct: purchased Sigma
T4 sequence (P42338 whole entry): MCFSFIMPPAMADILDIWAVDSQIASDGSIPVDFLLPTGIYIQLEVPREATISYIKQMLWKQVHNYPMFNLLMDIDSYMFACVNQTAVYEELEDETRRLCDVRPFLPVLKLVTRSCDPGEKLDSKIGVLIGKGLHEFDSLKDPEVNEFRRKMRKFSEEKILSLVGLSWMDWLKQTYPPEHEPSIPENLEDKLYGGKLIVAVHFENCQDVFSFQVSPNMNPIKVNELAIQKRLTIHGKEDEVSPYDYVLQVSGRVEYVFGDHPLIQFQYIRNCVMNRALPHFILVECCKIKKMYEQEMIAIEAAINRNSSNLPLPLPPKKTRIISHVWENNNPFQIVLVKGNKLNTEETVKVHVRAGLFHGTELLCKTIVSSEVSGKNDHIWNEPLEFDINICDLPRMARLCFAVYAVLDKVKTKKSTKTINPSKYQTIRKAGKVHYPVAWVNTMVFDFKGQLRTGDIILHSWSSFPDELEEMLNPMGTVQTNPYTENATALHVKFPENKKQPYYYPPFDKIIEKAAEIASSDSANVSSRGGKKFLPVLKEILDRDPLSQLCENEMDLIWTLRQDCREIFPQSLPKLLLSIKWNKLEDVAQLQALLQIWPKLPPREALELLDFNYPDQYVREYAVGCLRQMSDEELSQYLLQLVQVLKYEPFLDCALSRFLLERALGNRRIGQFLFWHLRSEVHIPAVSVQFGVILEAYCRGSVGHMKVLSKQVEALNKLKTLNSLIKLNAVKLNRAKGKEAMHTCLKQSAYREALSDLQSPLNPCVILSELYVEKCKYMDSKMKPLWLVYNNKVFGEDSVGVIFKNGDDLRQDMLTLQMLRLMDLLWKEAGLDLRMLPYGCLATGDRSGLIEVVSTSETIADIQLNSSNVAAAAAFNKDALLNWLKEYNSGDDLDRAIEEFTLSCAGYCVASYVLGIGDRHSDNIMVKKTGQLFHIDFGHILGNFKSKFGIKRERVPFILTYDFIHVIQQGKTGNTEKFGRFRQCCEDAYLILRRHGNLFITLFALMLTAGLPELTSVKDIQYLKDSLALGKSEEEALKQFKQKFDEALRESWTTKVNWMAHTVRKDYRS
T4 sequence (P27986 whole entry partner): as the sequence (P27986 whole entry partner, canonical isoform) above

[15] = tested on: OCI-AML-3; assay: Colony formation (colonogenic assay); assay type: cell-based; conditions: Homo sapiens
[16] = tested on: MV4-11; assay: Cell cycle analysis; assay type: cell-based; conditions: MV4-11, 48 h treatment
[17] = tested on: OCI-AML-2; assay: Autophagy markers LC3BII and p62 (immunoblotting); assay type: cell-based
[18] = tested on: MV4-11; assay: Colony formation (colonogenic assay); assay type: cell-based; conditions: Homo sapiens, AML
[19] = tested on: NB4; assay: Anti-proliferative effect; assay type: cell-based; conditions: Homo sapiens, read-out: GI50 NB4
[20] = tested on: HL-60; assay: Anti-proliferative effect; assay type: cell-based; conditions: Homo sapiens, HL-60, read-out: GI50 HL-60
[21] = tested on: LC3B puncta in HeLa cells; assay: Immunofluorescence of LC3B puncta; assay type: cell-based; conditions: 16 hours
Description: as §1

`Cc1nc(NC(=O)CN)sc1-c1cnc(Cl)c(NS(=O)(=O)c2ccc(C(C)(C)C)cc2)c1` [PI3KD/V-IN-01, 2-amino-N-(5-(5-(4-tert-butylphenylsulfonamido)-6-chloropyridin-3-yl)-4-methylthiazol-2-yl)acetamide] was tested, and the cell cycle progression [1] was “arrested in the G0/G1 phase”, the GI50 [2] was 2300 nM and the induction of apoptosis [3] was “only a modest induction of apoptosis”. The GI50 [4] was 2400 nM, the EC50 [5] was 11 nM and the EC50 [6] was 413 nM. The “effect on pERK” value [7] was “significantly inhibited”, the IC50 [8] was 119 nM and the IC50 [9] was 19 nM. The IC50 [10] was 6 nM, the “levels of the autophagy markers, LC3BII and p62” value [11] was “concentration-dependent increase” and the induction of apoptosis [12] was “apparent PARP cleavage observed”. For the same molecule, the GI50 [13] was over 10000 nM, the IC50 [14] was 111 nM and the EC50 [15] was 1000 nM. For the same molecule, the cell cycle progression [16] was “arrested in the G0/G1 phase”, the “levels of the autophagy markers, LC3BII and p62” value [17] was “concentration-dependent increase” and the EC50 [18] was 124 nM. For the same molecule, the GI50 [19] was 1400 nM, the GI50 [20] was 2700 nM and the “Effect on LC3B puncta” value [21] was “increased LC3B puncta”.
